Assay results from patent US20120115867A1, “NEW CLASS OF HISTONE DEACETYLASE INHIBITORS” (DAC S.R.L., priority 2004, published 2012).

system: HDAC (nuclear fraction of Hela cells); assay: Assay of enzyme inhibition of HDAC (BIOMOL Kit, fluorescence); type: biochemical; details: 30× diluted nuclear fraction of Hela cells; substrate 200 μM; 15 min at RT
Procedure: The in-vitro activity of HDAC inhibitors was assayed by means of a biochemical assay using a BIOMOL Kit, according to the instructions from the manufacturer (Biomolecular Research Laborator). Briefly, 15 μl of 30× diluted nuclear fraction of Hela cells, was diluted to 50 μl with the assay buffer containing the HDAC inhibitor and the substrate (lysine with acetylated amino on the side chain) at a concentration of 200 μM. The samples were incubated for 15 min at RT and then exposed to a developer (10 min at RT). In this last step a fluorophore was produced, whose fluorescence was measured using an excitation wavelength of 355 nm and an emission at 460 nm. The IC50 is calculated using GraphPad Software.
The reference HDAC inhibitors marked with (*) are those disclosed in the patent application WO2006/037761.

IC50 [nM] | Structure (SMILES)
29 | CN1CCN(c2cc(Cl)cc(C(=O)/C=C/c3cccc(/C=C/C(=O)NO)n3)c2)CC1 [Example 11, (E)-3-(6-{(E)-3-[3-Chloro-5-(4-methyl-piperazin-1-yl)-phenyl]-3-oxo-propenyl}-pyridin-2-yl)-N-hydroxy-acrylamide]
2840 | O=C(/C=C/c1ccc(/C=C/C(=O)c2ccc(N3CCOCC3)cc2)c(F)c1)NO [Ref (*) 29, reference compound]
1360 | O=C(/C=C/c1ccc(/C=C/C(=O)c2ccc(N3CCOCC3)cc2)cc1)NO [Ref (*) 41, reference compound]
73.3 | COc1cc(C(=O)/C=C/c2ccc(/C=C/C(=O)NO)cc2)ccc1CN1CCOCC1 [Ref (*) 48, reference compound]
1370 | O=C(/C=C/c1cccc(/C=C/C(=O)c2cccc(F)c2)c1)NO [Ref (*)MC1653, reference compound]
130 | O=C(/C=C/c1cccc(/C=C/C(=O)c2ccccc2F)c1)NO [Ref (*)MC1661, reference compound]
389 | O=C(/C=C/c1cccc(/C=C/C(=O)c2ccccc2Cl)c1)NO [Ref (*)MC1670, reference compound]
1460 | O=C(/C=C/c1cccc(/C=C/C(=O)c2cccc(Cl)c2)c1)NO [Ref (*)MC1672, reference compound]
